Data published in publication PMC11742122, “Therapeutic Potential of Crocin and Nobiletin in a Mouse Model of Dry Eye Disease: Modulation of the Inflammatory Response and Protection of the Ocular Surface” (Iranian Journal of Pharmaceutical Research : IJPR, 2024).
Marks after values point to notes of the source that are not given here.

Assays:
rabbit eye = assay: Eye irritation test (Draize test) in rabbits' eyes
Protocol: To assess the ocular toxicity of the two compounds, crocin and nobiletin, an in vivo eye irritation test was conducted. The concentrations evaluated were strategically chosen based on the respective IC50 of each compound. Specifically, the concentrations tested included the IC50 value itself, as well as concentrations at one-half and one-quarter of the IC50 value. This approach allowed for a comprehensive evaluation of the potential eye irritation caused by varying levels of exposure to these compounds. The experimental protocol involved the preparation of stock solutions for crocin and nobiletin using DMSO as the solvent at high concentrations. These stock solutions were then diluted with an artificial tear solution to obtain the desired treatment doses for instillation into the eye conjunctiva of the test subjects. Subsequently, the team meticulously observed and recorded any occurrences of eye symptoms, focusing on the iris, cornea, and conjunctiva over periods of 1, 24, 48, and 72 hours ([18]).

HEK-293 cells = assay: MTT cell viability assay; assay type: cell-based; conditions: Homo sapiens, HEK293, 48-hour treatment
Protocol: The HEK-293 cell line was acquired from the National Cell Bank of Iran, situated at the Pasteur Institute in Tehran. These cells were propagated in Roswell Park Memorial Institute (RPMI) medium, supplemented with 10% fetal bovine serum (FBS), 100 units/mL penicillin, and 100 μg/mL streptomycin. The culture conditions maintained were a humidified incubator set at 37°C, with 5% CO2 and 95% humid air. The culture medium was replenished twice per week until the cells reached 80 - 90% confluency. Subsequently, the cells were dissociated using trypsin and subcultured for passaging and cryopreservation. All experiments were conducted using cells within the passage number range of 3 - 6. Cells were routinely tested for mycoplasma contamination using Hoechst staining. Briefly, cells were fixed and stained with Hoechst 33258 dye, which binds to DNA. Samples were then examined under a fluorescence microscope for the presence of extranuclear DNA, indicative of mycoplasma infection. All cell cultures used in this study were confirmed to be mycoplasma-negative. […] In this study, (1 × 10^4) Hek-293 cells were seeded per well in 96-well plates. […] The measurement of absorbance was performed at an optical density (OD) of 570 nm. Cell viability was assessed by comparing the absorbance values of the drug-treated cells to those of untreated control cells. […]

TNF-α = TNF-α concentration in LPS-stimulated HEK-293 cell line; assay type: cell-based; conditions: HEK-293 cells, LPS 1 μg/mL, 48 hours; for TNF-α concentration, higher dose versus lower dose: crocin 68 μM, nobiletin 65.5 μM; for TNF-α concentration (anti-inflammatory effect): crocin 34 and 68 μM, nobiletin 32.75 and 65.5 μM, vs LPS group
Protocol: Figure 3. Tumor necrosis factor-alpha (TNF-α) concentration in HEK-293 cells treated with LPS (1 μg/mL) for 48 hours.

In the case of `CC(/C=C/C=C(\C)C(=O)O[C@@H]1O[C@H](CO[C@@H]2O[C@H](CO)[C@@H](O)[C@H](O)[C@H]2O)[C@@H](O)[C@H](O)[C@H]1O)=C\C=C\C=C(C)\C=C\C=C(/C)C(=O)O[C@@H]1O[C@H](CO[C@@H]2O[C@H](CO)[C@@H](O)[C@H](O)[C@H]2O)[C@@H](O)[C@H](O)[C@H]1O` [Crocin], the highest safe concentration (rabbit eye; rabbit eye irritation test) is reported as 34 ^a µM, the ocular observations (rabbit eye; rabbit, in vivo) is reported as “ocular turbidity was observed, along with mild conjunctival hyperemia” and the IC50 (HEK-293 cells) is reported as 136 µM. For the same compound, the “TNF-α concentration, higher dose versus lower dose” value (TNF-α) was “superior anti-inflammatory efficacy compared to their lower-dose counterparts” and the “TNF-α concentration (anti-inflammatory effect)” value (TNF-α) was “exhibited anti-inflammatory properties at all tested concentrations”.

`COc1ccc(-c2cc(=O)c3c(OC)c(OC)c(OC)c(OC)c3o2)cc1OC` [Nobiletin] was tested, and the ocular observations (rabbit eye; rabbit, in vivo) was “ocular turbidity was observed, along with mild conjunctival hyperemia”, the highest safe concentration (rabbit eye; rabbit, in vivo, 72 h) was 32.75 ^a µM and the IC50 (HEK-293 cells) was 131 µM. For the same compound, the “TNF-α concentration, higher dose versus lower dose” value (TNF-α) was “superior anti-inflammatory efficacy compared to their lower-dose counterparts” and the “TNF-α concentration (anti-inflammatory effect)” value (TNF-α) was “exhibited anti-inflammatory properties at all tested concentrations”.
